Test results taken from US9475773B2, “NK3 receptor antagonist compound (NK3RA) for use in a method for the treatment of polycystic ovary syndrome (PCOS)” (ASTRAZENECA AB, priority 2013, dated 2016).

Key:
hrNK3 receptor = biological target: T1, hrNK3 receptor (Homo sapiens, UniProt P29371); assay: Intracellular Calcium Mobilisation Assay (hrNK3 CHO-K1 cells, Senktide, FLIPR); format: cell-based
T1 construct: expressed in transfected cells; host or cells: CHO-K1
T1 sequence (P29371 1-465): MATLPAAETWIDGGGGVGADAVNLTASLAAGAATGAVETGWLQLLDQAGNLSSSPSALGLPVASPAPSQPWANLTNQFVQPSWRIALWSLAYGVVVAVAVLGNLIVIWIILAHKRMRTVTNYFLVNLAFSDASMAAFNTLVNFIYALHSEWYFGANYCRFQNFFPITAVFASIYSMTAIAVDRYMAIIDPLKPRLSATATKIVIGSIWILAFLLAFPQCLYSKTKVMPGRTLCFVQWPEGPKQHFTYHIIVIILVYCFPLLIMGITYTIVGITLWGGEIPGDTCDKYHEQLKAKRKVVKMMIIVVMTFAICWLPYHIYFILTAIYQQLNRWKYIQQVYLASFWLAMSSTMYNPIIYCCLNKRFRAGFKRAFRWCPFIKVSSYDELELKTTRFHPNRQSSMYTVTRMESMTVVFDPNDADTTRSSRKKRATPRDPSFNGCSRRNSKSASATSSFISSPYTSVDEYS
Protocol: The activity of a compound in antagonising the hrNK3 receptor expressed in CHO cells may be measured in the following Intracellular Calcium Mobilisation Assay:
CHO-K1 cells stably transfected with human recombinant Neurokinin-3 receptor (hrNK3 CHO-K1) were cultured in […] tissue culture flasks as monolayers in complete Ham's F-12 media (supplemented with 10% (v/v) FBS, 2 mM L-glutamine and […] Hygromycin B). Cultures are maintained under standard tissue culture conditions. For experiments, PBS was used to wash cells free of culture media and Trypsin was used to detach cells from the flask surface. Cells were counted, pelleted by centrifugation (100 g for 5 min) and resuspended in cell plating medium (UltraCULTURE by BioWhittaker 12-725F containing 200 mM L-Glutamine). […]
Changes in intracellular free calcium were measured fluorometrically by loading hrNK3 CHO-K1 in 384-well plates with the calcium sensitive fluorescent dye, Fluo-4AM as described previously (Xiong et. al., Bioorg. Med. Chem. Lett. 2011, 21, 1896). […]
A test compound was pre-dissolved in DMSO and incubated with cells to a final concentration of 0.1% (v/v) DMSO for 15 minutes. Assays were initiated by the addition of Senktide (purchased from Bachem) and the transient increase in Fluo-4-fluorescence monitored using a FLIPR (Fluorometric Imaging Plate Reader, Molecular Devices, Sunnyvale, U.S.A.).

female rats = assay: Rat female fertility and embryofetal development study; format: in vivo
Protocol: In female rats the No Adverse Effect Dose Level for fetal minor abnormalities and variants was 1000 mg/kg/day.

serum testosterone = assay: Phase II PoP schizophrenia trial, serum testosterone; format: in vivo, human; settings: schizophrenia patients, 40 mg QD

Compound: CC[C@H](NC(=O)c1c(NS(C)(=O)=O)c(-c2ccccc2)nc2ccccc12)c1ccccc1 [NK3RA, 3-(methanesulfonamido)-2-phenyl-N-[(1S)-1-phenylpropyl]quinoline-4-carboxamide]
- activity at the hrNK3 receptor expressed in CHO cells (hrNK3 receptor): antagonist of the hrNK3 receptor
- No Adverse Effect Dose Level for fetal minor abnormalities and variants (female rats; female rats): 1000 mg/kg/day
- estrus cycles, mating performance and fertility (female rats; rat, in vivo): Disturbed estrus cycles were seen with no adverse effects on mating performance or fertility
- serum testosterone (serum testosterone): reduction in serum testosterone
